Tests used:
Assay in all cases: relative viability (nuclei count vs DMSO), 5 days (fraction); higher = more cells survive
DM3189 = compound: C1CN(CCN1)C2=CC=C(C=C2)C3=CN4C(=C(C=N4)C5=CC=NC6=CC=CC=C56)N=C3 [DM3189]
Procedure, shortened: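 Acceptance criteria were a control CV below 25% and at least one doubling per plate. Lung cancer cell lines in 1536-well plates got five library-drug doses (not always all listed) √10 apart by pinning and were left 5 days with no medium change. Viability divides treated-well nuclei by vehicle-well nuclei and is the median across plates. Nuclei were counted by MetaXpress from 4× Hoechst images.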

DM3189 + Dasatinib = compound: C1CN(CCN1)C2=CC=C(C=C2)C3=CN4C(=C(C=N4)C5=CC=NC6=CC=CC=C56)N=C3 [DM3189] + Cc1nc(Nc2ncc(C(=O)Nc3c(C)cccc3Cl)s2)cc(N2CCN(CCO)CC2)n1 [Dasatinib] (partner 0.075 µM)
Procedure, shortened: (§1)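 Lung cancer cell lines, seeded in 1536-well plates, were treated the following day by pin tool with a single drug or with five library-drug doses (not always all listed) in √10 steps on top of a fixed anchor-drug dose. Cells were fixed and nuclei stained in one step after 5 days, and nuclei were counted. Relative viability is the nuclei count for treated wells divided by that for vehicle wells, reported as medians of duplicate plates.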

DM3189 + Alpelisib = compound: C1CN(CCN1)C2=CC=C(C=C2)C3=CN4C(=C(C=N4)C5=CC=NC6=CC=CC=C56)N=C3 [DM3189] + Cc1nc(NC(=O)N2CCC[C@H]2C(N)=O)sc1-c1ccnc(C(C)(C)C(F)(F)F)c1 [Alpelisib] (partner 2 µM)
Procedure, shortened: as §1

DM3189 + Olaparib = compound: C1CN(CCN1)C2=CC=C(C=C2)C3=CN4C(=C(C=N4)C5=CC=NC6=CC=CC=C56)N=C3 [DM3189] + O=C(c1cc(Cc2n[nH]c(=O)c3ccccc23)ccc1F)N1CCN(C(=O)C2CC2)CC1 [Olaparib] (partner 8 µM)
Procedure, shortened: as §1

DM3189 + Crizotinib = compound: C1CN(CCN1)C2=CC=C(C=C2)C3=CN4C(=C(C=N4)C5=CC=NC6=CC=CC=C56)N=C3 [DM3189] + C[C@@H](Oc1cc(-c2cnn(C3CCNCC3)c2)cnc1N)c1c(Cl)ccc(F)c1Cl [Crizotinib] (partner 1 µM)
Procedure, shortened: as §1

Cell Line | relative viability (DM3189; 0.08 µM) | relative viability (DM3189; 0.253 µM) | relative viability (DM3189; 0.8 µM) | relative viability (DM3189; 2.53 µM) | relative viability (DM3189 + Dasatinib; first compound 0.08 µM) | relative viability (DM3189 + Dasatinib; first compound 0.253 µM) | relative viability (DM3189 + Dasatinib; first compound 0.8 µM) | relative viability (DM3189 + Dasatinib; first compound 2.53 µM) | relative viability (DM3189 + Alpelisib; first compound 0.08 µM) | relative viability (DM3189 + Alpelisib; first compound 0.253 µM) | relative viability (DM3189 + Alpelisib; first compound 0.8 µM) | relative viability (DM3189 + Alpelisib; first compound 2.53 µM) | relative viability (DM3189 + Olaparib; first compound 0.08 µM) | relative viability (DM3189 + Olaparib; first compound 0.253 µM) | relative viability (DM3189 + Olaparib; first compound 0.8 µM) | relative viability (DM3189 + Olaparib; first compound 2.53 µM) | relative viability (DM3189 + Crizotinib; first compound 0.08 µM) | relative viability (DM3189 + Crizotinib; first compound 0.253 µM) | relative viability (DM3189 + Crizotinib; first compound 0.8 µM) | relative viability (DM3189 + Crizotinib; first compound 2.53 µM)
NCI-H2126 | 1.12 | 1.01 | 0.961 | 0.942 | 0.742 | 0.568 | 0.446 | 0.503 | 0.838 | 0.745 | 0.763 | 0.805 | 0.99 | 0.89 | 0.896 | 0.991 | 1.07 | 0.989 | 0.98 | 1.06
NCI-H2170 | 1.06 | 1.01 | 0.981 | 0.946 | 0.718 | 0.466 | 0.591 | 0.515 | 0.96 | 0.854 | 0.734 | 0.641 | 0.607 | 0.69 | 0.534 | 0.469 | 1.31 | 1.27 | 1.24 | 1.09
NCI-H2228 | 1.18 | 1.1 | 0.811 | 0.447 | 0.577 | 0.41 | 0.545 | 0.245 | 0.683 | 0.79 | 0.513 | 0.211 | 0.88 | 0.669 | 0.492 | 0.51 | 0.695 | 0.363 | 0.385 | 0.14
NCI-H2347 | 1.2 | 1.03 | 0.945 | 1.02 | 0.261 | 0.384 | 0.341 | 0.284 | 0.969 | 1 | 0.989 | 1.14 | 0.544 | 0.53 | 0.522 | 0.55 | 0.692 | 0.761 | 0.67 | 0.675
NCI-H2405 | 1.1 | 0.975 | 0.951 | 1.03 | 0.215 | 0.204 | 0.201 | 0.214 | 0.527 | 0.709 | 0.58 | 0.677 | 0.919 | 0.858 | 0.781 | 0.793 | 0.867 | 0.855 | 0.775 | 0.855
NCI-H3122 | 0.992 | 0.901 | 0.905 | 0.975 | 0.853 | 0.639 | 0.757 | 0.708 | 0.656 | 0.74 | 0.701 | 0.739 | 0.698 | 0.606 | 0.545 | 0.73 | 0.237 | 0.204 | 0.261 | 0.259
PC-3 [JPC-3] | 1.13 | 1.01 | 1.04 | 1.1 | 1.12 | 1.07 | 1.16 | 0.966 | 1.08 | 1.08 | 1.02 | 1.23 | 1.17 | 1.11 | 1.08 | 1.05 | 1.05 | 1.04 | 1.04 | 1.12
PC-14 | 1.14 | 0.954 | 0.871 | 0.932 | 0.295 | 0.239 | 0.159 | 0.16 | 0.983 | 0.996 | 0.768 | 1.1 | 0.277 | 0.238 | 0.264 | 0.226 | 0.807 | 0.914 | 0.791 | 0.862
RERF-LC-KJ | 1.16 | 1.04 | 1.04 | 1.05 | 1.03 | 0.891 | 0.744 | 0.943 | 0.932 | 0.829 | 0.895 | 0.937 | 0.942 | 0.889 | 0.823 | 0.833 | 0.887 | 0.812 | 0.863 | 0.885
SK-LU-1 | 1.03 | 0.793 | 0.814 | 0.749 | 0.143 | 0.109 | 0.104 | 0.136 | 0.932 | 0.677 | 0.638 | 0.377 | 0.449 | 0.398 | 0.35 | 0.372 | 0.714 | 0.868 | 0.676 | 0.522
SK-MES-1 | 1.04 | 0.981 | 0.853 | 0.94 | 0.322 | 0.263 | 0.265 | 0.237 | 0.937 | 0.873 | 0.738 | 0.782 | 0.679 | 0.546 | 0.594 | 0.348 | 1.05 | 0.885 | 0.69 | 0.918
SW 1573 | 1.06 | 0.938 | 0.903 | 0.81 | 0.741 | 0.389 | 0.46 | 0.382 | 0.869 | 0.59 | 0.711 | 0.774 | 0.543 | 0.449 | 0.441 | 0.106 | 0.87 | 0.801 | 0.717 | 0.767
UMC-11 | 1.05 | 0.958 | 0.816 | 0.795 | 0.467 | 0.429 | 0.467 | 0.401 | 0.994 | 0.998 | 0.794 | 0.749 | 0.395 | 0.37 | 0.35 | 0.458 | 0.499 | 0.477 | 0.538 | 0.414
